Results on one molecule are retold here after patent US10487054B2, “Therapeutic compounds” (REGENTS OF THE UNIVERSITY OF MINNESOTA, priority 2017, dated 2019).

Experiment [1] addresses T1, active TOPK (Homo sapiens, UniProt Q96KB5).
T1 construct: purchased SignalChem (Richmond, BC, Canada)
T1 sequence (Q96KB5 1-322): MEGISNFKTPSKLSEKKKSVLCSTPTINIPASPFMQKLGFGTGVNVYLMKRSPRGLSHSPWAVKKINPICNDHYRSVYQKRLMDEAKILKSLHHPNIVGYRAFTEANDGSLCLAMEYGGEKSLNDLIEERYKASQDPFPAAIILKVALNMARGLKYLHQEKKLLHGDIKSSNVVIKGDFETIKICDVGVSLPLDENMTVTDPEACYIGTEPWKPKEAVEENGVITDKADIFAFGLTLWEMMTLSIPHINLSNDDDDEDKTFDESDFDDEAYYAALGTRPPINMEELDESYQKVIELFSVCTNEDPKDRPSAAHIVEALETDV
Kind of experiment: ATP competition pull-down assay with compound 1-conjugated Sepharose 4B beads. The following applies: ATP 0, 10 or 100 μM; active TOPK 200 ng. In kind it is binding. As for the experimental part: Active TOPK (200 ng) was incubated with different concentrations of ATP (0, 10 or 100 μM) and then mixed with compound 1-conjugated Sepharose 4B beads or Sepharose 4B beads. Proteins were pulled down and analyzed by Western blot. Data are representative of 3 independent experiments that gave similar results. FIGS. 2C and 2D show compound 1 binds to either TOPK (2C) or MEK1/2 (2D) ex vivo. Lysates from HaCaT cells (500 μg) were incubated with compound 1-conjugated Sepharose 4B beads or Sepharose 4B beads alone and the pulled-down proteins were analyzed by Western blot. Data are representative of 3 independent experiments that gave similar results. FIGS. 2E and 2F show compound 1 inhibits TOPK kinase (2E) activity but not MEK1 kinase (2F) activity in vitro. Active TOPK (200 ng) was mixed with compound 1 (0, 0.5, 1, 3, or 5 μM) or HI-032 (TOPK inhibitor, 10 μM) and then incubated with a [γ-^32P] ATP mixture. Similarly, MEK1 (200 ng) was mixed with compound 1 (0, 0.5, 1, 3, 5, or 10 μM) or PD098059 (MEK1 inhibitor, 5 μM) and then incubated with a [γ-^32P] ATP mixture. For 2E and 2F, the results are visualized by autoradiography and Coomassie blue staining serves as a loading control. Data are representative of 3 independent experiments that gave similar results. […]

Experiment [2] concerns HaCaT cells. Nature of the experiment: Western blot of SUV-induced TOPK downstream signaling. In kind it is cell-based, human. As for the experimental part: The cells were cultured, treated for 4 h with different concentrations of compound 1 and then exposed to SUV (60 kJ UVA/m^2 and 2.9 kJ UVB/m^2), followed by an additional 15-minute incubation. Cells were harvested and the levels of phosphorylated and total proteins were determined by Western blot analysis with specific antibodies as indicated. […] The cells were cultured and treated with different concentrations of compound 1 for 24 h. Cells were harvested and the levels of phosphorylated and total proteins were determined by Western blot analysis with specific antibodies as indicated. […] For the luciferase assay, JB6 P+ cells stably transfected with an AP-1 luciferase reporter plasmid were cultured. After starvation for 24 h, cells were treated for 1 h with compound 1 (0, 1.25, 2.5, or 5 μM). Cells were then exposed to SUV (60 kJ UVA/m^2 and 2.9 kJ UVB/m^2) and harvested 3 h later. Luciferase activity was measured and AP-1 activity is expressed relative to control cells without SUV treatment. […] Knockdown of TOPK in A431 cell line (left). Stable control or TOPK knockdown cells were co-transfected with 100 ng of the AP-1 luciferase reporter plasmid and 50 ng of internal control […] plasmid. Cells were transfected using iMFectin poly DNA transfection reagent (GenDEPOT) according to the manufacturer's instructions. After 12 h of transfection, cells were incubated with the different concentrations of compound 1 for another 24 h. Luciferase and […] activities were measured using reagents included in the reporter assay system (right). Data are shown as mean values±S.D obtained from triplicate experiments. Significant differences were evaluated using one-way ANOVA and the asterisks (*) indicate a significant effect (*, p<0.05; **, p<0.001; ***, p<0.0001). […]
HaCaT or JB6 P+ cells (1×10^6) were cultured in 10-cm dishes for 24 h and then the medium was replaced with 0.1% FBS medium for 24 h. […] Protein concentration in cell lysates was determined using a protein assay kit (Bio-Rad Laboratories, Hercules, Calif.). […]
A general note: Immunoblotting shows a protein as a band on a membrane.

As for `O=C1Nc2ccc(C34CC5CC(CC(C5)C3)C4)cc2C1=NO` [compound 1, 5-(adamantan-1-yl)-3-(hydroxyimino)indolin-2-one], the “binding ability with TOPK in presence of ATP” value in experiment [1] is given as “altered in the presence of ATP”. Besides, the “phosphorylated c-Jun protein levels” value in experiment [2] (HaCaT cells exposed to SUV) is on record as “significantly suppressed”. In addition, the “phosphorylation of ERK1/2, p38, and JNKs” value in experiment [2] (HaCaT cells, 4 h treatment then SUV (60 kJ UVA/m2 and 2.9 kJ UVB/m2)) was “markedly suppressed”. Also, the “phosphorylated and total TOPK protein levels” value in experiment [2] (Western blot, cell lines not specified in the sentence (FIG. 3A, 3B)) was “no significant changes”.
